pKi: −log10 of the molar value.
Target: T1, Adenosine receptor A1 (Rattus norvegicus, UniProt P25099)
T1 sequence (P25099 whole entry): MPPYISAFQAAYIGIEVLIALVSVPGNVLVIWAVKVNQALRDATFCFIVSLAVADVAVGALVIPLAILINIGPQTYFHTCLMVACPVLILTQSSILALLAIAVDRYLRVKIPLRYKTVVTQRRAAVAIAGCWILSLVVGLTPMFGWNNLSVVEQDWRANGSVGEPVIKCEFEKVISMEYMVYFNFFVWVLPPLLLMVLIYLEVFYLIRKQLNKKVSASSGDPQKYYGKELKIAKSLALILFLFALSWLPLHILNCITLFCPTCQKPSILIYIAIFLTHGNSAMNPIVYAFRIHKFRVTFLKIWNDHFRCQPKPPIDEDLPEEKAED
Assay: Inhibition of [3H]CHA binding to Adenosine A1 receptor in rat brain membranes
Type: cell membranes

Row | SMILES | pKi
1 | Cc1nn(C)c2c(=O)[nH]c(-c3ccc(Cl)cc3N)nc12 | 6.51
2 | CCCn1c(=O)c2[nH]c(-c3ccc(Cl)cc3N)nc2n(CCC)c1=O | 8.32
